# Laboratory results reported in US20230203096A1, “EPHA4 TARGETING COMPOUNDS AND METHODS OF USE THEREOF” (priority 2020, published 2023).
# Where two headings read alike, the source gives them in different places. Square brackets hold non-standard residues; d marks the D form. Peptide text beside a SMILES is read from it. * marks the point of attachment. Phe(4-(2-MeO-Ph)) = COc1ccccc1-c1ccc(C[C@H](N)C(=O)O)cc1; Cyclohexanoyl(1S,3S-3-NH2) = N[C@H]1CCC[C@H](C(=O)*)C1; Trp(5-OH) = N[C@@H](Cc1c[nH]c2ccc(O)cc12)C(=O)O; NHPh(4-CH2-morpholino) = c1cc(N*)ccc1CN1CCOCC1; NH(4-morpholinophenyl) = c1cc(N2CCOCC2)ccc1N*; Bip = N[C@@H](Cc1ccc(-c2ccccc2)cc1)C(=O)O; hArg = N=C(N)NCCCC[C@H](N)C(=O)O
# What was measured:
# [1] = biological target: T1, ^13C^ε-Met-labeled EphA4-LBD (Homo sapiens, UniProt P54764, C204A); assay: 2D [13C,1H] HSQC NMR chemical shift perturbation of Met resonances; assay type: binding; conditions: for Δδ Met 60 / Δδ Met 115 / Δδ Met 164: test ligands at 40 μM, EphA4-LDB at 20 μM, Table 8; for Δδ ^13C^ϵ/^1H^ϵ Met 164: protein 20 μM, 20 μM of each compound
# T1 construct: His tag (N); made in house; host or cells: E. coli Rosetta-Gami B(DE3), pET15b
# Protocol: Peptides were synthesized by using standard solid-phase synthesis protocol, using the BAL resin as anchoring for the C-terminal amines. Isothermal Titration Calorimetry (ITC) measurements were performed in a reverse fashion by titrating the protein into the ligand solution. Solution nuclear magnetic resonance (NMR) experiments were conducted on a 700 MHz Bruker Avance spectrometer equipped with a TCI cryoprobe. […]
# 2D [^13C,^1H] correlation NMR spectra measured with such protein targets, collected in absence or presence of test ligands can be used to monitor ligand binding and make, albeit qualitative, determinations on possible conformational changes induced by test ligands on the protein target. […] In targeting EphA4, an important aspect regarding the activity of its ligands is whether these agents could be predicted to work as antagonists or agonists.
# NMR spectra were acquired on Bruker Avance III 700 MHz spectrometer equipped with a TCI cryoprobe. All NMR data were processed and analyzed using TOPSPIN 3.6.1 (Bruker, Billerica, Mass., USA).
# Chemical shift changes (A) in the 2D [^13C, ^1H] spectra were calculated as weight average perturbations observed in the ^1H and ^13C dimensions using the following Equation: […]
# [2] = tested on: mouse motor neurons co-cultured with iAstrocytes derived from sALS patients; assay: Co-culture of sALS patient derived iAstrocytes and motor neurons (motor neuron survival); assay type: cell-based; conditions: 100 μM
# Description: EphA4 has been directly implicated in the progression of ALS in mice models and in human genetic studies. While the mechanisms for onset and progression of ALS remain largely undetermined, astrocytes have been implicated as significant contributors to motor neuron death in both in familial ALS (fALS), that is driven by inactivating mutations within the superoxide dismutase 1 (SOD1) gene and that account for less than 2% of all ALS cases, (Di Giorgio et al., Nat Neurosci, 10 (5): 608-614, (2007); Nagai et al., Nat Neurosci, 10 (5): 615-622, (2007); Yamanaka et al., Nat Neurosci, 11 (3): 251-253, (2008)) and the more common sporadic form of ALS (sALS). […] Recently, it was shown that astrocytes derived from both patient groups are similarly toxic to motor neurons (Haidet-Phillips et al., Nat Biotechnol, 29 (9): 824-828, (2011)).
# Induced Astrocytes were generated by seeding a low quantity of NPCs into astrocyte medium (DMEM media containing 10% FBS and 0.2% N2) for five days. Following differentiation, iAstrocytes were lifted and seeded into a 96 well (10,000 cells per well).
# Cells are sorted through a 100 micron tip with sheath pressure of 27. GFP+ motor neurons were seeded in a 96 well plate (10,000 cells per well). Co-cultures were imaged with InCell for up to three days. Motor neurons with neurite outgrowth of greater than 50 um were counted as alive.
# [3] = tested on: EphA4; conditions: reported previously; cited from earlier work
# [4] = tested on: SOD1(G93A) transgenic mice; conditions: SOD1(G93A) models, literature; cited from earlier work
# [5] = biological target: T2, recombinant EphA4 ligand binding domain (Homo sapiens, UniProt P54764, C204A); assay: Isothermal titration calorimetry (ITC) against EphA4-LBD
# T2 construct: His tag (N); made in house; host or cells: E. coli Rosetta-Gami B(DE3), pET15b
# Protocol: Peptides were synthesized by using standard solid-phase synthesis protocol, using the BAL resin as anchoring for the C-terminal amines. Isothermal Titration Calorimetry (ITC) measurements were performed in a reverse fashion by titrating the protein into the ligand solution. Solution nuclear magnetic resonance (NMR) experiments were conducted on a 700 MHz Bruker Avance spectrometer equipped with a TCI cryoprobe. Each protein sample was dissolved into an NMR tube at a final concentration of 20 μM (1% DMSO-d6) in the presence of 20 μM of each compound.
# The fragments were transformed into Rosetta-Gami B(DE3) competent cells and grown in LB medium at 37° C. with 100 μg/mL of ampicillin until reaching an OD600 of 0.6-0.7 followed by induction with 0.4 mM IPTG overnight at 20° C. Bacteria were then collected by centrifugation and lysed by sonication at 4° C. […] EphA4 LBD with ^13C^ε/^1H^ε-Met labeled was expressed like previously described but adding a suspension of 100 mg of ^13C^ε/^1H^ε-Methionine in 1 mL of DMSO per liter of LB medium, 10 minutes before induction. […] Transformation, expression, and purification of EphA3-LBD chimera was performed as described above for EphA4-LBD.
# Isothermal titration calorimetry (ITC) measurements were performed using the Affinity ITC Autosampler from TA Instruments (New Castle, Del.). The titrations were performed in a reverse fashion by titrating the protein into the ligand solution. […] The syringe was filled with a 100 μM solution of EphA4-LBD, EphA3-LBD Chimera, or EphA2-LBD, and 20 injections of 2.5 μL each were performed into the cell containing a 20 μM solution of the compounds. The injections were made at 200 s or 400 s intervals with a stirring speed of 75 rpm. All the solutions were kept in the autosampler at 4° C. The analysis of the thermodynamics signatures and for dissociation constant determination was performed by the NanoAnalyze software (TA Instruments, New Castle, Del.) and subsequently exported into Microsoft Excel.
# [6] = Aqueous solubility; assay type: physicochemical
# T1 sequence (P54764 29-209 C204A): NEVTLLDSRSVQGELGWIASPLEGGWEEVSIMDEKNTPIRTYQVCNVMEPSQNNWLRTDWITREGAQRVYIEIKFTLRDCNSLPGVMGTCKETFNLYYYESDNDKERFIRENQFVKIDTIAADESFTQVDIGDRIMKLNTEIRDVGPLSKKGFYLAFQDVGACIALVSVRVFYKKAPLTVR
# T2 sequence (P54764 29-209 C204A): as above
SMILES,Δδ Met 60 [1],Δδ Met 115 [1],Δδ Met 164 [1],protection of motor neurons from sALS astrocytes-induced death [2],agonistic activity for EphA4 in primary cortical neurons [3],disease onset / survival [4],"Kd ([5]; ITC with the ligand binding domain, Table 8, read-out: Kd (nM) vs EphA4) [nM]","-TΔS ([5]; ITC, EphA4-LBD) [kcal/mol]","AH ([5]; ITC, EphA4-LBD) [kcal/mol]",Δδ ^13C^ϵ/^1H^ϵ Met 164 [1],Aqueous Solubility [6] [mM],"Kd ([5]; ITC, EphA4-LBD, read-out: Kd (nM)- ITC) [nM]"
"COc1ccc2[nH]cc(CCNC(=O)[C@H](Cc3ccncc3)NC(=O)[C@H](Cc3ccc(Cl)cc3)NC(=O)[C@H](Cc3c[nH]c4ccc(O)cc34)NC(=O)CCCN)c2c1 [Compound 123C4, reference compound]",+ (0< + <0.1 ppm),+ (0< + <0.1 ppm),++ (0.1 ppm < ++ <0.2 ppm),"to a lesser extent, 123C4 (at a higher concentration) were able to protect mouse motor neurons",induced receptor phosphorylation and growth cone collapse,significantly prolonged survival,,,,,,
"N=C(N)NCCCC[C@H](NC(=O)[C@H](Cc1ccc(-c2ccccc2)cc1)NC(=O)[C@H](Cc1c[nH]c2ccc(O)cc12)NC(=O)[C@H]1CCC[C@H](N)C1)C(=O)NCC(=O)Nc1ccc(CN2CCOCC2)cc1 [Compound 9, (1S,3S)—N—((S)-1-(((S)-3-([1,1′-biphenyl]-4-yl)-1-(((S)-6-guanidino-1-((2-((4-(morpholinomethyl)phenyl)amino)-2-oxoethyl)amino)-1-oxohexan-2-yl)amino)-1-oxopropan-2-yl)amino)-3-(5-hydroxy-1H-indol-3-yl)-1-oxopropan-2-yl)-3-aminocyclohexane-1-carboxamide] ({Cyclohexanoyl(1S,3S-3-NH2)}-[Trp(5-OH)][Bip][hArg]G-{NHPh(4-CH2-morpholino)})",++ (0.1 ppm < ++ <0.2 ppm),+ (0< + <0.1 ppm),+++ (0.2< +++ <0.25),,,,144,-1.90,-7.44,+++ (0.2< +++ <0.25),>50,
"COc1ccccc1-c1ccc(C[C@H](NC(=O)[C@H](Cc2c[nH]c3ccc(O)cc23)NC(=O)[C@H]2CCC[C@H](N)C2)C(=O)N[C@@H](CCCCNC(=N)N)C(=O)NCC(=O)Nc2ccc(N3CCOCC3)cc2)cc1 [Compound 3, (1S,3S)-3-amino-N—((S)-1-(((S)-1-(((S)-6-guanidino-1-((2-((4-morpholinophenyl)amino)-2-oxoethyl)amino)-1-oxohexan-2-yl)amino)-3-(2′-methoxy-[1,1′-biphenyl]-4-yl)-1-oxopropan-2-yl)amino)-3-(5-hydroxy-1H-indol-3-yl)-1-oxopropan-2-yl)cyclohexane-1-carboxamide] ({Cyclohexanoyl(1S,3S-3-NH2)}-[Trp(5-OH)][Phe(4-(2-MeO-Ph))][hArg]G-{NH(4-morpholinophenyl)})",+ (0< + <0.1 ppm),+ (0< + <0.1 ppm),+ (0< + <0.1 ppm),,,,,-0.60,-8.92,+ (0< + <0.1 ppm),>50,106
